Results on 4 compounds are retold here after patent US12083079B2, “Sphingoid compounds for prophylaxis and/or therapy of a viral infection” (priority 2018, dated 2024).

The test system of data set [1] is lymphocytic choriomeningitis virus (LCMV). The format is cell-based.
A short description of data set [2]: Surface sphingosine in nasal mucosa after intranasal application, in situ sphingosine kinase assay. The format is in vivo. To be noted: wild-type mice. On the procedure:
Sphingosine (SPH) was applied into the nose of wild-type mice and the concentration of sphingosine on the epithelial cell surface was determined after 1, 4 and 8 hrs (a.i.: after injection of sphingosine). To this end, 10 μl, of a 10 μM or a 100 μM sphingosine solution was applied into the nostrils of wild-type mice. Controls received the solvent, i.e. octylglucopyranoside at the same concentration used when sphingosine was applied, or were left untreated. Mice were slightly and very briefly anesthetized with ether. For the intranasal application we used a blunt-end 30 g needle that was covered with a thin plastic film. The blunt-ended needle was inserted into the nostrils approximately 2 mm. Mice were sacrificed after the indicated time, the nasal bone was removed, placed on a 30° C. pre-warmed plastic plate and an area of 2 mm×2 mm was immediately incubated with 0.001 units of sphingosine kinase 1 (#6068-SK-010, R&D) in 4 μl of 150 mM sodium acetate (pH 7.4), 1 μM ATP, and 10 μCi [^32P]γATP/sample. Controls were incubated with the same buffer without sphingosine kinase or were left untreated. […] The TLC plates were analyzed with a phosphoimager. Surface sphingosine levels were determined with a standard curve of C18-sphingosine. […]

Data set [3] relates to rhinovirus strain RV2 (minor strain). The data set is described as follows: Rhinovirus RV2 infection of Hela cells, dead cells by Trypan Blue. The format is cell-based. To be noted: added 10 min before or 60 min or 240 min after infection, 4 days.
Data set [4] has as its system rhinovirus strain 2 (RV2). The data set is described as follows: Intranasal RV2 infection of wild-type mice, Hela cell death bioassay of nasal bone. The format is in vivo. To be noted: 10 μL of 100 μM intranasal, 10 min prior to or 1, 4 or 8 hrs after infection, sacrificed after 24 hrs. On the procedure: Mice were infected with 10^3 PFU rhinovirus strain 2 (RV2) in 10 μL PBS. The virus was applied directly into the nose using a blunt ended, plastic coated 30 g needle, that was inserted into the nose approximately 2 mm. Sphingosine (SPH) was applied into the nose of the wild-type mice at a concentration of 100 μM solution in PBS in a volume of 10 μL. Sphingosine was applied either 10 min prior to rhinovirus infection (b.i.) or 1 hr, 4 hrs and 8 hrs after the infection (a.i.). Controls received the solvent, i.e. octylglucopyranoside (OGP) at the same concentration than used when sphingosine was applied, or were left untreated, but infected. Solutions were applied as in 3.2. Mice were sacrificed after 24 hrs, the nasal bone was removed and incubated for 4 days with Hela cells in a 24 well plate. If the nasal epithelial cells are infected, rhinovirus will be released due to the cytopathic effect of the virus and the in vivo infection can then be determined and quantified by measuring cell death of Hela cells as a bioassay. To this end, dead cells were collected, adherent cells were trypsinized, the fractions were combined, washed twice in H/S (20 mM HEPES, 132 mM NaCl, 5 mM KCl, 1 mM CaCl2), 0.7 mM MgCl2, 0.8 mM MgSO4, pH 7.4), stained with Trypan Blue (0.2% final concentration) and dead cells were counted in aliquots of 500 cells as above. […]

In another data set the test system is RV1b. The data set is described as follows: Binding of sphingosine to RV1b immobilized to agarose beads, remaining sphingosine by kinase assay. To be noted: 250 μM sphingosine in PBS (pH 7.0), 4 hrs at 4° C. Also noted: species or system rhinovirus. As to the method: As a complement to the above study, RV1b (obtained from ATCC) were immobilized to agarose beads and tested for binding of sphingosine (SPH). To this end, we incubated 1 μg/ml anti-RV1b antibodies with 10^6 CFU RV1b for 1 h at 4° C. in H/S, added 50 μL agarose protein A/G beads (Santa Cruz Inc.), incubated for an additional 1 h at 4° C. and washed the immobilized precipitates 5-times in H/S. We resuspended the beads in 500 μL PBS (pH 7.0) containing 250 μM sphingosine. Samples were incubated for 4 hrs at 4° C., pelleted and aliquots of the supernatants were added to 50 mM HEPES (pH 7.4), 250 mM NaCl, 30 mM MgCl2, 0.001 units sphingosine kinase (R&D), 1 mM ATP and 10 μCi [^32P]γATP. The kinase reaction was performed for 1 hr at 30° C., stopped by addition of 20 μl 1N HCl, 800 μl CHCl3/CH3OH/1N HCl (100:200:1, v/v/v), 240 μl CHCl3 and 2 M KCl. Phases were separated, the lower phase was collected, dried, dissolved in 20 μL of CHCl3:CH3OH (1:1, v/v) and separated on Silica G60 thin layer chromatography (TLC) plates using CHCl3/CH3OH/acetic acid/H2O (90:90:15:5, v/v/v/v). The TLC plates were exposed to radiography films, spots were removed from the plates, and the incorporation of [^32P] into sphingosine measured by liquid scintillation counting. Sphingosine was determined using a standard curve of C18-SPH. […]

Data set [5] relates to lymphocytic choriomeningitis virus (LCMV). The format is cell-based. This is another data set of the same source.
Data set [6] concerns epithelial cells of the nose. The data set is described as follows: Dead nasal epithelial cells after intranasal sphingosine (Trypan Blue). The format is in vivo. To be noted: wild-type mice, 10 μL of 10 μM or 100 μM solution intranasal; 8 hours or 24 hours. As to the method:
Sphingosine was applied into the nose of wild-type mice as in 3.2. 10 μL of a 10 μM or a 100 μM sphingosine (SPH) solution was administered into the nostrils of wild-type mice. Controls received the solvent, i.e. octylglucopyranoside at the same concentration used when sphingosine was applied, or were left untreated. Mice were anesthetized prior to application of sphingosine. Mice were sacrificed after 8 hours or 24 hours, the nasal bone was removed and incubated in Trypsin solution for 10 min to release and isolate epithelial cells. Cells were washed twice in H/S (20 mM HEPES, 132 mM NaCl, 5 mM KCl, 1 mM CaCl2), 0.7 mM MgCl2, 0.8 mM MgSO4, pH 7.4), stained with Trypan Blue (0.2% final concentration) and dead cells were counted in aliquots of 500 cells. Given is the percentage of dead cells±SD from 4 independent experiments each; *p<0.05, ANOVA.

Another data set has as its system rhinovirus 2 (RV2). The data set is described as follows: RV2 infection of freshly isolated human epithelial cells, Hela cytotoxicity readout. The format is cell-based. Conditions: 10 μM or 20 μM, 24 hrs. As to the method:
(§1) 10^4 PFU of Rhinovirus 2 or 14 (RV2, RV14) were incubated with freshly isolated human epithelial cells for 24 hrs in the presence of 10 μM or 20 μM sphingosine (SPH) or the corresponding concentration of the solvent octylglucopyranoside (OGP), the cells were pelleted, supernatants completely removed, the cell pellets resuspended in PBS and added to Hela cells. Cells were incubated for 3 days and cytotoxicity as measurement for virus titers was determined. Shown is the mean±SD, n=4, *p<0.001 ANOVA.

Data set [7] has as its system rhinovirus strain RV14 (major strain). The data set is described as follows: Rhinovirus RV14 infection of Hela cells, dead cells by Trypan Blue. The class given is cell-based. To be noted: added 10 min before or 60 min or 240 min after infection, 4 days.
In the next data set the test system is rhinovirus 14 (RV14). Put plainly: RV14 infection of freshly isolated human epithelial cells, Hela cytotoxicity readout. The class given is cell-based. Conditions: 10 μM or 20 μM, 24 hrs. On the procedure: as §1
A further data set relates to Hela cells. To be noted: uninfected Hela cells, 10 μM or 20 μM.
For another data set, the system named is HIV-1 JR-CSF. Put plainly: HIV-P24 ELISA in supernatant of infected human T cells. The format is cell-based. To be noted: 50 μM, after 7 days. (In general: An ELISA detects its analyte on a solid surface through an enzyme-linked reagent.)
In data set [8] the test system is vesicular stomatitis virus (VSV). The format is cell-based.

On to `Oc1ccc(Nc2nc(-c3ccc(Cl)cc3)cs2)cc1` [SKII, 2-(p-hydroxyanilino)-4-(p-chlorophenyl)thiazole], for which the “virus-infected cells by immunofluorescence” value in [1] is reported as “inhibits the spreading of the virus”.
Consider `CCCCCCCCCCCCC/C=C/[C@@H](O)[C@@H](N)CO` [sphingosine, (2S,3R,4E)-2-amino-4-octadecene-1,3-diol], for which the “surface sphingosine concentration in nasal mucosa” value in [2] (10 μl of 10 μM or 100 μM solution into the nostrils, 1, 4 and 8 hrs) is “dose-dependent accumulation of sphingosine in the mucosa”. In [2] (washing prior to the in situ kinase assay), the “surface sphingosine concentration after washing the mucosa in PBS” value was “reduces sphingosine accumulation”. The “infection with RV2 (percentage of dead cells)” value in [3] (10 μM) and in data set [3] (20 μM) was “prevented the infection” throughout. In addition, the “infection with RV2 in vivo (percentage of dead Hela cells, bioassay)” value in [4] is “prevented”. Moreover, the “binding of sphingosine to RV1b-coupled agarose beads (remaining sphingosine in the supernatant)” value in the data set on RV1b is reported as “efficiently bind sphingosine”. Besides, the “virus production (infectious LCMV particles in the supernatant)” value in [5] is recorded as “inhibits the propagation of LCMV”. In addition, the “toxic effects (percentage of dead nasal epithelial cells)” value in [6] was “no toxic effects on epithelial cells of the nose”. For the same compound, the “infection of human epithelial cells by RV2 (cytotoxicity as measurement for virus titers)” value with rhinovirus 2 (RV2) is on record as “abrogates infection”. Also, the “infection with RV14 (percentage of dead cells)” value in data set [7] (10 μM) and in [7] (20 μM) was “prevented the infection” each time. Also, the “infection of human epithelial cells by RV14 (cytotoxicity as measurement for virus titers)” value with rhinovirus 14 (RV14) was “abrogates infection”. In the data set on Hela cells, the “effect of sphingosine itself on the cells (percentage of dead cells)” value is reported as “had no effect on the cells”.
For the compound MP A08, the “amount of HIV-P24 in the supernatant” value in the data set on HIV-1 JR-CSF is given as “prevents the propagation of HIV”.
Consider sphingomyelinase, for which the “virus production (infectious LCMV particles in the supernatant)” value in [5] is listed as “inhibits the propagation of LCMV”. Moreover, the number of plaques result in [8] is “inhibits the propagation of VSV”.
